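Tested at 5 concentrations; 48 h exposure; 96-well plates; endpoints linearly interpolated, else capped at highest concentration. GI50 is the concentration that inhibits growth by half.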 Calls of active or inactive are those of the source. Cut-off read from the data, not from the text of the source: active = GI50 up to about 1.1 µM and inactive = higher.
Assays:
Assay in all cases: DTP human tumour cell line panel, 48 h
[1] = system: MDA-MB-231
[2] = system: Malme-3M
[3] = system: HOP-62
[4] = system: SW-620
[5] = system: SK-OV-3
[6] = system: A549
[7] = system: BT-549
[8] = system: OVCAR-8
[9] = system: NCI-H460
[10] = system: A498
[11] = system: HOP-92
[12] = system: T47D
[13] = system: UACC-62
[14] = system: HCC 2998
[15] = system: RXF 393
[16] = system: HCT-116
[17] = system: KM12
[18] = system: SN12C
[19] = system: SR

SMILES	GI50 [1]	GI50 [2]	GI50 [3]	GI50 [4]	GI50 [5]	GI50 [6]	GI50 [7]	GI50 [8]	GI50 [9]	GI50 [10]	GI50 [11]	GI50 [12]	GI50 [13]	GI50 [14]	GI50 [15]	GI50 [16]	GI50 [17]	GI50 [18]	GI50 [19]
CC1=C(C)C1[N+](=O)[O-]	> 100 µM (inactive)	82.6 µM (inactive)	> 100 µM (inactive)	> 100 µM (inactive)	> 100 µM (inactive)	> 100 µM (inactive)	> 100 µM (inactive)	> 100 µM (inactive)	> 100 µM (inactive)	97.7 µM (inactive)	> 100 µM (inactive)	> 100 µM (inactive)	> 100 µM (inactive)	> 100 µM (inactive)	> 100 µM (inactive)	> 100 µM (inactive)	> 100 µM (inactive)	> 100 µM (inactive)	–
CC1(CCCO)CCCCCCCCCC(C)(CCCO)C1=O (stereo not given)	> 100 µM (inactive)	> 100 µM (inactive)	> 100 µM (inactive)	> 100 µM (inactive)	> 100 µM (inactive)	87.3 µM (inactive)	> 100 µM (inactive)	> 100 µM (inactive)	> 100 µM (inactive)	> 100 µM (inactive)	> 100 µM (inactive)	> 100 µM (inactive)	> 100 µM (inactive)	> 100 µM (inactive)	> 100 µM (inactive)	94 µM (inactive)	> 100 µM (inactive)	> 100 µM (inactive)	–
CC(=O)OCc1ccc2c(c1)C(O)NC(=O)O2 (stereo not given)	> 100 µM (inactive)	42.4 µM (inactive)	> 100 µM (inactive)	72.8 µM (inactive)	> 100 µM (inactive)	> 100 µM (inactive)	> 100 µM (inactive)	> 100 µM (inactive)	> 100 µM (inactive)	–	> 100 µM (inactive)	34.6 µM (inactive)	> 100 µM (inactive)	–	> 100 µM (inactive)	52.8 µM (inactive)	88.5 µM (inactive)	50.7 µM (inactive)	10.4 µM (inactive)
Nc1ncnc2c1ccn2CC#CCO	> 100 µM (inactive)	> 100 µM (inactive)	> 100 µM (inactive)	> 100 µM (inactive)	> 100 µM (inactive)	> 100 µM (inactive)	> 100 µM (inactive)	> 100 µM (inactive)	> 100 µM (inactive)	> 100 µM (inactive)	> 100 µM (inactive)	> 100 µM (inactive)	> 100 µM (inactive)	> 100 µM (inactive)	97.3 µM (inactive)	> 100 µM (inactive)	> 100 µM (inactive)	> 100 µM (inactive)	–
Cc1ccc(S(=O)(=O)NC2C(=O)c3ccccc3C(=O)C2n2cnc3ccccc32)cc1 (stereo not given)	17.9 µM (inactive)	0.214 µM (active)	50.4 µM (inactive)	25.3 µM (inactive)	66.5 µM (inactive)	33.5 µM (inactive)	28.8 µM (inactive)	29.4 µM (inactive)	19.5 µM (inactive)	–	14.4 µM (inactive)	25.2 µM (inactive)	28.3 µM (inactive)	0.906 µM (active)	24.9 µM (inactive)	27.4 µM (inactive)	9.4 µM (inactive)	32.7 µM (inactive)	34.4 µM (inactive)
Cc1cccc(/N=N/C(=O)NNc2cccc(C)c2C)c1C	47.5 µM (inactive)	21.7 µM (inactive)	20.7 µM (inactive)	34 µM (inactive)	–	31.2 µM (inactive)	23.3 µM (inactive)	33.3 µM (inactive)	38.5 µM (inactive)	34 µM (inactive)	–	27.2 µM (inactive)	29.5 µM (inactive)	15 µM (inactive)	–	29.4 µM (inactive)	–	53.1 µM (inactive)	33.2 µM (inactive)
CNC(=O)c1nc[nH]c1/N=N/N(C)N	> 100 µM (inactive)	> 100 µM (inactive)	> 100 µM (inactive)	> 100 µM (inactive)	> 100 µM (inactive)	> 100 µM (inactive)	> 100 µM (inactive)	> 100 µM (inactive)	55 µM (inactive)	> 100 µM (inactive)	–	> 100 µM (inactive)	> 100 µM (inactive)	> 100 µM (inactive)	> 100 µM (inactive)	> 100 µM (inactive)	40.5 µM (inactive)	> 100 µM (inactive)	–
Cc1ccc(/C=N/Nc2cc(C)c3cccc(C)c3n2)s1	> 10 µM (inactive)	15.1 µM (inactive)	11.8 µM (inactive)	8.15 µM (inactive)	16.4 µM (inactive)	6.31 µM (inactive)	5.45 µM (inactive)	10.4 µM (inactive)	–	–	6.4 µM (inactive)	4.15 µM (inactive)	17.9 µM (inactive)	6.38 µM (inactive)	9.86 µM (inactive)	2.82 µM (inactive)	7.31 µM (inactive)	9.08 µM (inactive)	2.71 µM (inactive)
COc1ccc2nccc(/C=C/c3ccc(N(C)C)cc3)c2c1	> 10 µM (inactive)	> 10 µM (inactive)	> 10 µM (inactive)	> 10 µM (inactive)	> 10 µM (inactive)	> 10 µM (inactive)	> 10 µM (inactive)	> 10 µM (inactive)	> 10 µM (inactive)	> 10 µM (inactive)	> 10 µM (inactive)	> 10 µM (inactive)	> 10 µM (inactive)	> 10 µM (inactive)	> 10 µM (inactive)	8.59 µM (inactive)	> 10 µM (inactive)	> 10 µM (inactive)	–
[O-][S+](Cc1ccccc1)c1ccccc1Cn1cccc1 (stereo not given)	> 100 µM (inactive)	> 100 µM (inactive)	> 100 µM (inactive)	> 100 µM (inactive)	> 100 µM (inactive)	> 100 µM (inactive)	61.1 µM (inactive)	–	> 100 µM (inactive)	–	96.6 µM (inactive)	> 100 µM (inactive)	71.6 µM (inactive)	> 100 µM (inactive)	42.8 µM (inactive)	> 100 µM (inactive)	> 100 µM (inactive)	> 100 µM (inactive)	23 µM (inactive)
COc1ccc2c(c1O)[C@@]13C=C(O)C(=O)C=C1[C@@H](C2)N(C)CC3	> 100 µM (inactive)	72.6 µM (inactive)	49.4 µM (inactive)	–	> 100 µM (inactive)	> 100 µM (inactive)	> 100 µM (inactive)	51.9 µM (inactive)	63.4 µM (inactive)	–	53.2 µM (inactive)	63.4 µM (inactive)	> 100 µM (inactive)	> 100 µM (inactive)	48.1 µM (inactive)	34.1 µM (inactive)	52.1 µM (inactive)	50 µM (inactive)	42.7 µM (inactive)
O=c1c(C(c2ccc(-c3ccccc3)cc2)c2c(O)oc3ccccc3c2=O)c(O)oc2ccccc12	23.3 µM (inactive)	24.7 µM (inactive)	24.1 µM (inactive)	16.4 µM (inactive)	–	–	19.2 µM (inactive)	17.2 µM (inactive)	18.9 µM (inactive)	31 µM (inactive)	19.1 µM (inactive)	40 µM (inactive)	19.3 µM (inactive)	15.6 µM (inactive)	–	23.2 µM (inactive)	19.6 µM (inactive)	16.7 µM (inactive)	–
Cc1cc2c(cc1Cl)SC(NNc1ccc([N+](=O)[O-])cc1)=NS2(=O)=O	> 10 µM (inactive)	> 10 µM (inactive)	> 10 µM (inactive)	> 10 µM (inactive)	> 10 µM (inactive)	> 10 µM (inactive)	> 10 µM (inactive)	> 10 µM (inactive)	> 10 µM (inactive)	> 10 µM (inactive)	–	> 10 µM (inactive)	> 10 µM (inactive)	> 10 µM (inactive)	> 10 µM (inactive)	> 10 µM (inactive)	> 10 µM (inactive)	> 10 µM (inactive)	–
O=c1oc2ccc(Cl)cc2cc1-c1cn2ccccc2n1	8.97 µM (inactive)	3.46 µM (inactive)	3.67 µM (inactive)	85.5 µM (inactive)	2.14 µM (inactive)	14.7 µM (inactive)	34.5 µM (inactive)	9.62 µM (inactive)	14.6 µM (inactive)	–	21.9 µM (inactive)	> 61.2 µM (inactive)	13 µM (inactive)	> 100 µM (inactive)	13.7 µM (inactive)	6.64 µM (inactive)	> 100 µM (inactive)	7.76 µM (inactive)	32.9 µM (inactive)
O=C(O)C1(C(=O)O)CC1(C(=O)O)C(=O)O	> 100 µM (inactive)	> 100 µM (inactive)	> 100 µM (inactive)	> 100 µM (inactive)	> 100 µM (inactive)	> 100 µM (inactive)	> 100 µM (inactive)	> 100 µM (inactive)	> 100 µM (inactive)	–	–	> 100 µM (inactive)	> 100 µM (inactive)	> 100 µM (inactive)	32.6 µM (inactive)	> 100 µM (inactive)	> 100 µM (inactive)	> 100 µM (inactive)	> 100 µM (inactive)
CC(C)CN(CC#N)CC(C)C	> 100 µM (inactive)	> 100 µM (inactive)	> 100 µM (inactive)	> 100 µM (inactive)	> 100 µM (inactive)	> 100 µM (inactive)	> 100 µM (inactive)	> 100 µM (inactive)	> 100 µM (inactive)	> 100 µM (inactive)	> 100 µM (inactive)	> 100 µM (inactive)	> 100 µM (inactive)	> 100 µM (inactive)	> 100 µM (inactive)	> 100 µM (inactive)	> 100 µM (inactive)	> 100 µM (inactive)	–

— ChEMBL document CHEMBL1201862, “PubChem BioAssay data set” (2004)
